From ChEMBL document CHEMBL1151449, “In vitro activity of DC-159a, a new broad-spectrum fluoroquinolone, compared with that of other agents against drug-susceptible and -resistant pneumococci” (2008)
In brackets after ≈: the same amount, converted by molar mass.

Key:
Assay type in all cases: functional
Streptococcus pneumoniae [1] = assay: Antibacterial activity against penicillin-resistant Streptococcus pneumoniae […] by agar dilution method
Streptococcus pneumoniae [2] = assay: Antibacterial activity against quinolone-resistant Streptococcus pneumoniae […] by agar dilution method
Streptococcus pneumoniae [3] = assay: Antibacterial activity against azithromycin-susceptible Streptococcus pneumoniae ATCC 49619 by agar dilution method
Streptococcus pneumoniae [4] = assay: Antibacterial activity against penicillin-susceptible Streptococcus pneumoniae ATCC 49619 by agar dilution method
Streptococcus pneumoniae [5] = assay: Antibacterial activity against penicillin-intermediate Streptococcus pneumoniae […] by agar dilution method
Streptococcus pneumoniae [6] = assay: Antibacterial activity against quinolone-susceptible Streptococcus pneumoniae ATCC 49619 by agar dilution method
Streptococcus pneumoniae [7] = assay: Antibacterial activity against azithromycin-resistant Streptococcus pneumoniae […] by agar dilution method
Streptococcus pneumoniae [8] = assay: Antibacterial activity against penicillin-, macrolide-susceptible and quinolone-resistant Streptococcus pneumoniae HMC 1074 harboring S81F, E85K mutation in quinolone-resistant determining regions of GyrA gene, S79F mutation in QRDR of ParC gene and I460V mutation in QRDR of ParE gene after 27 passages with gemifloxacin measured after 10 daily antibiotic-free subculturing by multi-step resistance selection technique

Structure (SMILES)	MIC50 (Streptococcus pneumoniae [1]) [µg/mL]	MIC90 (Streptococcus pneumoniae [1]) [µg/mL]	MIC50 (Streptococcus pneumoniae [2]) [µg/mL]	MIC90 (Streptococcus pneumoniae [2]) [µg/mL]	MIC50 (Streptococcus pneumoniae [3]) [µg/mL]	MIC90 (Streptococcus pneumoniae [3]) [µg/mL]	MIC50 (Streptococcus pneumoniae [4]) [µg/mL]	MIC90 (Streptococcus pneumoniae [4]) [µg/mL]	MIC50 (Streptococcus pneumoniae [5]) [µg/mL]	MIC90 (Streptococcus pneumoniae [5]) [µg/mL]	MIC50 (Streptococcus pneumoniae [6]) [µg/mL]	MIC90 (Streptococcus pneumoniae [6]) [µg/mL]	MIC50 (Streptococcus pneumoniae [7]) [µg/mL]	MIC90 (Streptococcus pneumoniae [7]) [µg/mL]	MIC (Streptococcus pneumoniae [8]) [µg/mL]
CC[C@H]1OC(=O)[C@H](C)C(=O)[C@H](C)[C@@H](O[C@@H]2O[C@H](C)C[C@H](N(C)C)[C@H]2O)[C@](C)(OC)C[C@@H](C)C(=O)[C@H](C)[C@H]2N(CCCCn3cnc(-c4cccnc4)c3)C(=O)O[C@]12C [TELITHROMYCIN]	0.06 (≈ 0.0739 µM)	0.25 (≈ 0.308 µM)	0.016 (≈ 0.0197 µM)	0.25 (≈ 0.308 µM)	0.016 (≈ 0.0197 µM)	0.03 (≈ 0.0369 µM)	0.03 (≈ 0.0369 µM)	0.12 (≈ 0.148 µM)	0.03 (≈ 0.0369 µM)	0.12 (≈ 0.148 µM)	0.03 (≈ 0.0369 µM)	0.12 (≈ 0.148 µM)	0.06 (≈ 0.0739 µM)	0.25 (≈ 0.308 µM)	–
C[C@H]1COc2c(N3CCN(C)CC3)c(F)cc3c(=O)c(C(=O)O)cn1c23.C[C@H]1COc2c(N3CCN(C)CC3)c(F)cc3c(=O)c(C(=O)O)cn1c23.O [LEVOFLOXACIN]	1	8	16	16	1	8	1	4	1	1	1	1	1	2	64
